Assay results taken from ChEMBL document CHEMBL1201862, “PubChem BioAssay data set” (2004).
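Each compound was tested at five concentrations against cells in 96-well plates for 48 hours. GI50 = concentration required for 50% inhibition of growth.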 Active and inactive are the calls of the source. Rule as the data show it: active = GI50 up to about 1.1 µM and inactive = higher.

Assays:
Experiment in all cases: NCI tumour cell line growth inhibition, 48 h
[1] = test system: SK-MEL-2
[2] = test system: KM-20L2
[3] = test system: M19-MEL
[4] = test system: OVCAR-4
[5] = test system: Malme-3M
[6] = test system: HOP-18
[7] = test system: A549
[8] = test system: DLD-1
[9] = test system: XF498
[10] = test system: DMS-114
[11] = test system: MCF7
[12] = test system: SR
[13] = test system: ACHN
[14] = test system: M14
[15] = test system: TK-10
[16] = test system: DU-145
[17] = test system: MDA-MB-231
[18] = test system: Hs-578T
[19] = test system: T47D
[20] = test system: MDA-N

For CC(=O)Nc1ccc(/C=C/c2ccc(NC(=O)Nc3ccc(/C=C/c4ccc(NC(C)=O)cc4S(=O)(=O)O)c(S(=O)(=O)O)c3)cc2S(=O)(=O)O)c(S(=O)(=O)O)c1, the GI50 [1] was > 100 µM (inactive), the GI50 [2] was 77.8 µM (inactive) and the GI50 [3] was > 100 µM (inactive). The GI50 [4] was > 100 µM (inactive), the GI50 [5] was > 100 µM (inactive) and the GI50 [6] was > 95.5 µM (inactive). For the same compound, the GI50 [7] was > 100 µM (inactive), the GI50 [8] was > 100 µM (inactive) and the GI50 [9] was > 48 µM (inactive). For the same compound, the GI50 [10] was 60.5 µM (inactive) and the GI50 [11] was > 100 µM (inactive).

CC(=O)OC1CC2(O)C(CCC3(C)C(c4ccc(=O)oc4)CCC32O)C2(C)CCC(O)C=C12 (stereo not given) was tested, and the GI50 [1] was 0.0177 µM (active), the GI50 [2] was 0.0219 µM (active) and the GI50 [3] was 0.0234 µM (active). The GI50 [4] was 0.0206 µM (active), the GI50 [6] was 0.0094 µM (active) and the GI50 [8] was 0.0375 µM (active). The GI50 [9] was 0.0381 µM (active), the GI50 [10] was 0.00116 µM (active) and the GI50 [11] was 0.0375 µM (active).

COc1ccc(C(=O)Cc2cc(OC)ccc2OC)cc1 was tested, and the GI50 [1] was > 100 µM (inactive), the GI50 [2] was > 100 µM (inactive) and the GI50 [3] was > 100 µM (inactive). The GI50 [4] was > 100 µM (inactive), the GI50 [5] was > 100 µM (inactive) and the GI50 [12] was > 100 µM (inactive). For the same compound, the GI50 [13] was > 100 µM (inactive), the GI50 [6] was > 100 µM (inactive) and the GI50 [14] was > 100 µM (inactive). For the same compound, the GI50 [7] was > 100 µM (inactive), the GI50 [8] was > 100 µM (inactive) and the GI50 [10] was 66.8 µM (inactive). The GI50 [15] was > 100 µM (inactive).

For CCP(=S)(CC)CCl, the GI50 [16] was > 100 µM (inactive), the GI50 [1] was > 100 µM (inactive) and the GI50 [17] was > 100 µM (inactive). For the same compound, the GI50 [4] was > 100 µM (inactive), the GI50 [12] was > 100 µM (inactive) and the GI50 [18] was > 100 µM (inactive). For the same compound, the GI50 [13] was > 100 µM (inactive), the GI50 [19] was > 100 µM (inactive) and the GI50 [14] was > 100 µM (inactive). For the same compound, the GI50 [7] was > 100 µM (inactive), the GI50 [15] was > 100 µM (inactive) and the GI50 [20] was > 100 µM (inactive). The GI50 [11] was > 100 µM (inactive).

For CN1CN(C(=O)N2CN(C)C(=O)N(C)C2)CN(C)C1=O, the GI50 [1] was > 100 µM (inactive), the GI50 [2] was > 100 µM (inactive) and the GI50 [3] was > 100 µM (inactive). The GI50 [5] was > 100 µM (inactive), the GI50 [13] was > 100 µM (inactive) and the GI50 [6] was > 100 µM (inactive). For the same compound, the GI50 [14] was > 100 µM (inactive), the GI50 [7] was > 100 µM (inactive) and the GI50 [8] was > 100 µM (inactive). For the same compound, the GI50 [9] was > 100 µM (inactive) and the GI50 [10] was > 100 µM (inactive).

CC(=O)OC1CC[C@@]2(C)C(=CC[C@@H]3[C@@H]2CC[C@]2(C)Nc4nn(S(C)(=O)=O)cc4C[C@@H]32)C1 (stereo not given in full) was tested, and the GI50 [16] was 35.9 µM (inactive), the GI50 [1] was 22.3 µM (inactive) and the GI50 [17] was 31 µM (inactive). For the same compound, the GI50 [5] was 27.3 µM (inactive), the GI50 [12] was 36.4 µM (inactive) and the GI50 [18] was 67 µM (inactive). For the same compound, the GI50 [19] was 14.2 µM (inactive), the GI50 [14] was 20.7 µM (inactive) and the GI50 [20] was 29 µM (inactive). For the same compound, the GI50 [11] was 16.6 µM (inactive).

With CC(C(=O)OCc1ccccc1)N(Cc1ccccc1)Cc1ccccc1 (stereo not given) the GI50 [1] was 29.6 µM (inactive), the GI50 [2] was > 100 µM (inactive) and the GI50 [4] was > 100 µM (inactive). For the same compound, the GI50 [5] was 51.2 µM (inactive), the GI50 [12] was 31 µM (inactive) and the GI50 [13] was 87.3 µM (inactive). For the same compound, the GI50 [14] was > 100 µM (inactive), the GI50 [7] was > 100 µM (inactive) and the GI50 [8] was > 100 µM (inactive). The GI50 [9] was 24 µM (inactive), the GI50 [10] was 60.7 µM (inactive) and the GI50 [15] was > 100 µM (inactive).

For CC1(C)CC2(CC(C)(C)N1O)NC(=O)OC2=O, the GI50 [1] was > 100 µM (inactive), the GI50 [2] was > 100 µM (inactive) and the GI50 [3] was > 100 µM (inactive). The GI50 [4] was > 100 µM (inactive), the GI50 [5] was > 100 µM (inactive) and the GI50 [6] was > 100 µM (inactive). For the same compound, the GI50 [7] was > 100 µM (inactive), the GI50 [8] was > 100 µM (inactive) and the GI50 [9] was > 100 µM (inactive). For the same compound, the GI50 [10] was > 100 µM (inactive) and the GI50 [11] was > 100 µM (inactive).

With Cc1cc(O)nc(NN2C(Cl)C(=O)C2c2c(O)ccc3ccccc23)n1 (stereo not given) the GI50 [1] was 15.2 µM (inactive), the GI50 [2] was 22.6 µM (inactive) and the GI50 [3] was 39.6 µM (inactive). The GI50 [4] was 17.3 µM (inactive), the GI50 [12] was 12 µM (inactive) and the GI50 [13] was 20.7 µM (inactive). The GI50 [6] was 12 µM (inactive), the GI50 [14] was 15.2 µM (inactive) and the GI50 [7] was 36.2 µM (inactive). For the same compound, the GI50 [10] was 19.8 µM (inactive) and the GI50 [15] was 37.2 µM (inactive).

For COC(=O)C1=C(O)C(C(=O)OC)[C@@]2(O)[C@@H](C(=O)OC)[C@H](C)[C@@H](C)[C@@H]1[C@@H]2C(=O)OC (stereo not given in full), the GI50 [16] was > 100 µM (inactive), the GI50 [1] was 48.5 µM (inactive) and the GI50 [17] was > 100 µM (inactive). For the same compound, the GI50 [5] was 83.2 µM (inactive), the GI50 [12] was 28.2 µM (inactive) and the GI50 [18] was 27.4 µM (inactive). The GI50 [13] was > 100 µM (inactive), the GI50 [19] was > 100 µM (inactive) and the GI50 [14] was 67.5 µM (inactive). For the same compound, the GI50 [15] was > 100 µM (inactive), the GI50 [20] was 22 µM (inactive) and the GI50 [11] was 38.1 µM (inactive).

CC[C@@]1(O)C[C@H](OC2CC(N(C)C)C(OC3CC(O)C(OC4CC(O)C(O)C(C)O4)C(C)O3)C(C)O2)c2c(cc3c(c2O)C(=O)c2c(O)ccc(O)c2C3=O)[C@H]1C(=O)OC (stereo not given in full) was tested, and the GI50 [1] was 0.0398 µM (active), the GI50 [2] was 0.108 µM (active) and the GI50 [3] was 0.0121 µM (active). The GI50 [4] was 0.0371 µM (active), the GI50 [5] was 0.0478 µM (active) and the GI50 [6] was 0.136 µM (active). For the same compound, the GI50 [7] was 0.0105 µM (active), the GI50 [8] was 0.0328 µM (active) and the GI50 [9] was 0.0189 µM (active). For the same compound, the GI50 [10] was 0.0853 µM (active) and the GI50 [11] was 0.0156 µM (active).

In the case of O=C(/N=N/c1cc(Cl)ccc1Cl)NNc1cc(Cl)ccc1Cl, the GI50 [16] is reported as 30.3 µM (inactive), the GI50 [1] is reported as 20 µM (inactive) and the GI50 [17] is reported as 15.7 µM (inactive). For the same compound, the GI50 [5] was 23.1 µM (inactive), the GI50 [12] was 21.2 µM (inactive) and the GI50 [18] was 25.5 µM (inactive). For the same compound, the GI50 [19] was 10.5 µM (inactive), the GI50 [14] was 17.1 µM (inactive) and the GI50 [20] was 25.4 µM (inactive). For the same compound, the GI50 [11] was 18.4 µM (inactive).

With Cc1ccc(C(=O)Nc2ncn(C3CC(O)C(CO)O3)c(=O)n2)cc1 (stereo not given) the GI50 [1] was > 100 µM (inactive), the GI50 [3] was > 100 µM (inactive) and the GI50 [4] was > 100 µM (inactive). The GI50 [5] was > 100 µM (inactive), the GI50 [6] was > 68.2 µM (inactive) and the GI50 [7] was > 100 µM (inactive). The GI50 [8] was > 100 µM (inactive), the GI50 [9] was > 100 µM (inactive) and the GI50 [10] was > 100 µM (inactive). For the same compound, the GI50 [11] was > 100 µM (inactive).

With Cc1ccc(C(=O)N/N=C(\N=N\c2cccc(C)c2)c2ccc(N(CCC#N)CCC#N)cc2C)cc1 the GI50 [16] was 73.1 µM (inactive), the GI50 [1] was 49.3 µM (inactive) and the GI50 [17] was > 100 µM (inactive). For the same compound, the GI50 [4] was > 100 µM (inactive), the GI50 [12] was 55.1 µM (inactive) and the GI50 [18] was 51.9 µM (inactive). The GI50 [13] was > 100 µM (inactive), the GI50 [19] was 44 µM (inactive) and the GI50 [14] was 89.5 µM (inactive). For the same compound, the GI50 [7] was > 100 µM (inactive), the GI50 [15] was > 100 µM (inactive) and the GI50 [20] was 54.7 µM (inactive). For the same compound, the GI50 [11] was 67.5 µM (inactive).

With CCOC(=O)C1=NN(c2ccccc2)C2=CC(C)=NN(C)C(=S)N21 the GI50 [16] was > 100 µM (inactive), the GI50 [1] was > 100 µM (inactive) and the GI50 [17] was > 100 µM (inactive). For the same compound, the GI50 [4] was > 100 µM (inactive), the GI50 [12] was > 100 µM (inactive) and the GI50 [18] was > 100 µM (inactive). The GI50 [13] was > 100 µM (inactive), the GI50 [19] was > 100 µM (inactive) and the GI50 [14] was > 100 µM (inactive). The GI50 [7] was > 100 µM (inactive), the GI50 [15] was > 100 µM (inactive) and the GI50 [20] was > 100 µM (inactive). The GI50 [11] was > 100 µM (inactive).
